pEC50: −log10 of the molar value.
How the values were obtained:
[1] = Cytotoxicity assay in MT-4 cells; format: cell-based, human; conditions: human, uninfected MT-4 cells, 5 days incubation; read-out: CC50
Method: Each plate contained up to 8 test compounds, with negative (No Drug Control) and 5 μM AZT positive controls. MT-4 cells were pre-infected with 10 μL of either RPMI (mock-infected) or a fresh 1:250 dilution of HIV-1 IIIB concentrated virus stock. Infected and uninfected MT-4 cells were further diluted in complete RPMI media and added to each plate using a Micro Flow dispenser. After 5 days incubation in a humidified and temperature controlled incubator (37° C.), Cell Titer Glo (Promega) was added to the assay plates and chemiluminescence read using an Envision plate-reader. […] Assays were performed as above except uninfected MT-4 cells were added to each well containing test compound. In addition, 10 μM puromycin was added to the last column of each assay plate to assess a base level of cytotoxicity.

HIV-1 (IIIB) = assay: Antiviral assay in MT-4 cells (HIV MT-4 antiviral assay); format: cell-based; conditions: Human immunodeficiency virus 1, IIIB, MT4, 120 h, HIV-1 (IIIB) in MT-4 cells, 5 days incubation; read-out: EC50
Method: Compounds were tested in a high-throughput 384-well assay format for their ability to inhibit the replication of HIV-1 (IIIB) in MT-4 cells. Compounds were serially diluted (1:3) in DMSO on 384-well polypropylene plates and further diluted 200-fold into complete RPMI media (10% FBS, 1% P/S) using the Biotek Micro Flow and Labcyte ECHO acoustic dispenser. Each plate contained up to 8 test compounds, with negative (No Drug Control) and 5 μM AZT positive controls. MT-4 cells were pre-infected with 10 μL of either RPMI (mock-infected) or a fresh 1:250 dilution of HIV-1 IIIB concentrated virus stock. Infected and uninfected MT-4 cells were further diluted in complete RPMI media and added to each plate using a Micro Flow dispenser. After 5 days incubation in a humidified and temperature controlled incubator (37° C.), Cell Titer Glo (Promega) was added to the assay plates and chemiluminescence read using an Envision plate-reader.

Row | pEC50 (HIV-1 (IIIB)) | SMILES | CC50 at 5 days [1] [nM]
1 | 8.32 | Cc1noc2c1C[C@H]1CN(C2)C(=O)c2c(O)c(=O)c(C(=O)NCc3c(F)cc(F)cc3F)cn21 (single isomer, unassigned) [Example 135-2] | > 50000
2 | 8.41 | O=C(NCc1c(F)cc(F)cc1F)c1cn2c(c(O)c1=O)C(=O)N1Cc3ccc(Cl)cc3C[C@@H]2C1 (single isomer, unassigned) [Example 127-2] | 13700
3 | 7.52 | O=C(NCc1c(F)cc(F)cc1F)c1cn2c(c(O)c1=O)C(=O)N1C[C@H]2CCc2c(Cl)cccc21 [Example 45-2, (12R)-1-chloro-7-hydroxy-6,8-dioxo-N-(2,4,6-trifluorobenzyl)-6,8,13,14-tetrahydro-12H-5,12-methanobenzo[e]pyrido[1,2-a][1,4]diazonine-9-carboxamide] | 8890
4 | 8.39 | O=C(NCc1ccc(F)cc1F)c1cn2c(c(O)c1=O)C(=O)N1CCCC(O)C2C1 (centres unmarked) [Example 12, N-(2,4-difluorobenzyl)-6,12-dihydroxy-1,11-dioxo-1,4,5,6,7,11-hexahydro-3H-2,7-methanopyrido[1,2-a][1,4]diazonine-10-carboxamide] | > 50000
5 | 7.22 | O=C(NCc1ccc(F)cc1F)c1cn2c(c(O)c1=O)C(=O)N1CCCC2CC1 (centres unmarked) [Example 23, N-(2,4-difluorobenzyl)-11-hydroxy-1,10-dioxo-1,3,4,5,6,10-hexahydro-2,6-ethanopyrido[1,2-a][1,4]diazocine-9-carboxamide] | 12000
6 | 8.22 | O=C(NCc1ccc(F)c(Cl)c1F)c1cn2c(c(O)c1=O)C(=O)N1C[C@H]2CCCc2ccccc21 [Example 97-2, (6R)—N-(3-chloro-2,4-difluorobenzyl)-1-hydroxy-2,15-dioxo-2,6,7,8,9,15-hexahydro-6,14-methanobenzo[e]pyrido[1,2-a][1,4]diazecine-3-carboxamide] | 16300
7 | < 7.00 | CS(=O)(=O)N1CCN2CC(C1)n1cc(C(=O)NCc3ccc(F)cc3F)c(=O)c(O)c1C2=O (centres unmarked) [Example 32, N-(2,4-difluorobenzyl)-12-hydroxy-5-(methylsulfonyl)-1,11-dioxo-1,4,5,6,7,11-hexahydro-3H-2,7-methanopyrido[1,2-a][1,4,7]triazonine-10-carboxamide] | > 50000
8 | 8.59 | C[C@@]1(F)CCN2C[C@H](C1)n1cc(C(=O)NCc3c(F)cc(F)cc3F)c(=O)c(O)c1C2=O [Example 115-2, (5R,7S)-5-fluoro-12-hydroxy-5-methyl-1,11-dioxo-N-(2,4,6-trifluorobenzyl)-1,4,5,6,7,11-hexahydro-3H-2,7-methanopyrido[1,2-a][1,4]diazonine-10-carboxamide] | 28100
9 | 8.92 | O=C(NCc1ccc(F)cc1F)c1cn2c(c(O)c1=O)C(=O)N1C[C@@H]2CCc2ccccc21 (single isomer, unassigned) [Example 37-2] | 12900
10 | 8.47 | Cc1noc2c1CN1C[C@H](C2)n2cc(C(=O)NCc3c(F)cc(F)cc3F)c(=O)c(O)c2C1=O (single isomer, unassigned) [Example 135-1] | > 50000
11 | 8.55 | O=C(NCc1ccc(F)c(Cl)c1F)c1cn2c(c(O)c1=O)C(=O)N1C[C@@H]2CCCc2ccccc21 [Example 97-1, (6S)—N-(3-chloro-2,4-difluorobenzyl)-1-hydroxy-2,15-dioxo-2,6,7,8,9,15-hexahydro-6,14-methanobenzo[e]pyrido[1,2-a][1,4]diazecine-3-carboxamide] | 6060
12 | 8.92 | C[C@H]1CCCN2C[C@H]1n1cc(C(=O)NCc3c(F)cc(F)cc3F)c(=O)c(O)c1C2=O [Example 170, (6S,7S)-12-hydroxy-6-methyl-1,11-dioxo-N-(2,4,6-trifluorobenzyl)-1,4,5,6,7,11-hexahydro-3H-2,7-methanopyrido[1,2-a][1,4]diazonine-10-carboxamide] | 9860
13 | 8.19 | O=C(NCc1ccc(F)cc1F)c1cn2c(c(O)c1=O)C(=O)N1C[C@H]2CCC(F)(F)C1 [Example 4-1, (7R)—N-(2,4-difluorobenzyl)-4,4-difluoro-12-hydroxy-1,11-dioxo-1,4,5,6,7,11-hexahydro-3H-2,7-methanopyrido[1,2-a][1,4]diazonine-10-carboxamide] | 23300
14 | 8.52 | O=C(NCc1c(F)cc(F)cc1F)c1cn2c(c(O)c1=O)C(=O)N1CCSC[C@@H]2C1 [Example 155-1, (7S)-12-hydroxy-1,11-dioxo-N-(2,4,6-trifluorobenzyl)-1,3,4,6,7,11-hexahydro-2,7-methanopyrido[1,2-d][1,4,7]thiadiazonine-10-carboxamide] | 39500
15 | 8.82 | CC1(F)CCCN2CC1n1cc(C(=O)NCc3ccc(F)cc3F)c(=O)c(O)c1C2=O (single isomer, unassigned) [Example 17-1a, N-(2,4-difluorobenzyl)-6-fluoro-12-hydroxy-6-methyl-1,11-dioxo-1,4,5,6,7,11-hexahydro-3H-2,7-methanopyrido[1,2-a][1,4]diazonine-10-carboxamide] | 12900
16 | 6.27 | O=C(NCc1ccc(F)cc1F)c1cn2c(c(O)c1=O)C(=O)N1C[C@@H]2COc2cc(F)c(F)cc21 [Example 92-1, (6R)—N-(2,4-difluorobenzyl)-10,11-difluoro-1-hydroxy-2,14-dioxo-2,6,7,14-tetrahydro-6,13-methanobenzo[b]pyrido[2,1-f][1,4,7]oxadiazonine-3-carboxamide] | > 50000
17 | 8.63 | CCC1CCCN2CC1n1cc(C(=O)NCc3ccc(F)cc3F)c(=O)c(O)c1C2=O (centres unmarked) [Example 106, N-(2,4-difluorobenzyl)-6-ethyl-12-hydroxy-1,11-dioxo-1,4,5,6,7,11-hexahydro-3H-2,7-methanopyrido[1,2-a][1,4]diazonine-10-carboxamide] | 6840
18 | 7.62 | O=C(NCc1ccc(F)c(Cl)c1F)c1cn2c(c(O)c1=O)C(=O)N1C[C@H]2CCc2ccc(F)cc21 [Example 90-1, (12R)—N-(3-chloro-2,4-difluorobenzyl)-3-fluoro-7-hydroxy-6,8-dioxo-6,8,13,14-tetrahydro-12H-5,12-methanobenzo[e]pyrido[1,2-a][1,4]diazonine-9-carboxamide] | > 32600
19 | 7.44 | COc1cccc(CNC(=O)c2cn3c(c(O)c2=O)C(=O)N2CCCC[C@H]3C2)c1F [Example 54] | 1460
20 | 8.05 | CO[C@@H]1CCN2C[C@H](C1)n1cc(C(=O)NCc3c(F)cc(F)cc3F)c(=O)c(O)c1C2=O [Example 103-1, (5R,7S)-12-hydroxy-5-methoxy-1,11-dioxo-N-(2,4,6-trifluorobenzyl)-1,4,5,6,7,11-hexahydro-3H-2,7-methanopyrido[1,2-a][1,4]diazonine-10-carboxamide] | > 50000
21 | 7.87 | O=C(NCc1ccc(F)cc1F)c1cn2c(c(O)c1=O)C(=O)N1CCOC[C@@H]2C1 [Example 28, (7S)—N-(2,4-difluorobenzyl)-12-hydroxy-1,11-dioxo-1,3,4,6,7,11-hexahydro-2,7-methanopyrido[1,2-d][1,4,7]oxadiazonine-10-carboxamide] | > 50000
22 | 8.89 | O=C(NCc1ccc(F)cc1F)c1cn2c(c(O)c1=O)C(=O)N1CCCC(F)C2C1 (centres unmarked) [Example 13, N-(2,4-difluorobenzyl)-6-fluoro-12-hydroxy-1,11-dioxo-1,4,5,6,7,11-hexahydro-3H-2,7-methanopyrido[1,2-a][1,4]diazonine-10-carboxamide] | 17200
23 | 8.14 | O=C(NCc1c(F)cc(F)cc1F)c1cn2c(c(O)c1=O)C(=O)N1CCCC(O)C2C1 (centres unmarked) [Example 11, 6,12-dihydroxy-1,11-dioxo-N-(2,4,6-trifluorobenzyl)-1,4,5,6,7,11-hexahydro-3H-2,7-methanopyrido[1,2-a][1,4]diazonine-10-carboxamide] | > 50000
24 | 8.22 | Cn1cc2c(n1)C[C@H]1CN(C2)C(=O)c2c(O)c(=O)c(C(=O)NCc3c(F)cc(F)cc3F)cn21 [Example 87-1, (12S)-7-hydroxy-2-methyl-6,8-dioxo-N-(2,4,6-trifluorobenzyl)-2,4,6,8,12,13-hexahydro-5,12-methanopyrazolo[4,3-f]pyrido[1,2-a][1,4]diazonine-9-carboxamide] | > 50000

Row | SMILES | pEC50 (HIV-1 (IIIB)) | CC50 at 5 days [1] [nM]
25 | O=C(NCc1c(F)cc(F)cc1F)c1cn2c(c(O)c1=O)C(=O)N1CC2CCc2sccc21 (stereo in doubt) [Example 104-2, (11S)-6-hydroxy-5,7-dioxo-N-(2,4,6-trifluorobenzyl)-5,7,12,13-tetrahydro-11H-4,11-methanopyrido[1,2-a]thieno[3,2-e][1,4]diazonine-8-carboxamide] | 7.45 | 14000
